In patent publication US7169612B2, “Use of EDG2 receptor in an animal model of heart failure” (Sanofi-Aventis Deutschland GmbH, priority 2002, dated 2007):

What was measured:
[1] = tested on: EDG2-overexpressing cardiomyocytes; test: Shortening measurements (contractility) in single isolated cardiomyocytes after Ad-EDG2-GFP gene transfer; format: cell-based, rabbit
Method: (§1) Contractility of infected cardiomyocytes was measured by an electro-optical monitoring system connected to online digitalized assessment of amplitude and velocity of shortening and of relaxation. Transgene-positive cardiomyocytes were identified by co-expression of GFP under fluorescent light. After the contraction amplitude reached stability, increasing concentrations of isoproterenol were applied at constant concentrations of lysophosphatidic acid (LPA; 10^−5 mol/l); or increasing LPA concentrations were added to constant concentrations of isoproterenol (10^−8 mol/l).
(§2) In order to investigate the effects of EDG2 on cardiomyocyte contractility, fractional shortening and velocity of shortening in single, isolated cardiomyocytes from failing hearts after ex vivo gene transfer was measured.
(§3) Single calcium-tolerant ventricular cardiomyocytes were isolated from failing White New Zealand rabbit hearts. Briefly, the hearts were perfused and digested with collagenase. The isolated cardiomyocytes were cultured in modified M199 on laminin-precoated dishes (5–10 μg/cm^2) at a density of 1.5×10^5 cells per cm^2 (at 5% CO2 and 37° C.). For contraction experiments, the cells were infected with adenovirus (multiplicity of infection (moi) 1 pfu/cell) 5 hours after plating. 50–60% of the infected cardiomyocytes expressed the transgene at this titer.

human EDG2 = target: T1, human EDG2 (Homo sapiens, UniProt Q92633); settings: HEK293 cells expressing the human EDG2 protein; LPA concentration dependent; cited from earlier work
T1 construct: host or cells: HEK293 cells expressing human EDG2

[2] = tested on: control GFP cardiomyocytes; test: Shortening measurements (contractility) in single isolated cardiomyocytes after Ad-GFP gene transfer (control); format: cell-based, rabbit; settings: increasing concentrations of LPA after prestimulation with isoproterenol 10^-8 mol/l; control GFP group; FIG. 2
Method: as §1, §2, §3

T1 sequence (Q92633 whole entry): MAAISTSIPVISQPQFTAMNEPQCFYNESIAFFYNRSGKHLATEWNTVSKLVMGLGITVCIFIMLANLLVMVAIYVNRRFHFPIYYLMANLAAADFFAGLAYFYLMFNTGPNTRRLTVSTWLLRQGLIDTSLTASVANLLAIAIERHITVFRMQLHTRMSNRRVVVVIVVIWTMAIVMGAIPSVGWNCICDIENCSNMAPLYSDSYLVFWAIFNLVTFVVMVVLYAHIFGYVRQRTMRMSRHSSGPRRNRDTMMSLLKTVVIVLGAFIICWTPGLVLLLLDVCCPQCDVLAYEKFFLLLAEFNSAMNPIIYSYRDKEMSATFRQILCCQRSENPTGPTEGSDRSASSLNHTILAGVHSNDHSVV

Compound | inotropic effect (fractional shortening) ([1]; increasing concentrations of isoproterenol at constant LPA 10^-5 mol/l, EDG2-overexpressing versus control, FIG. 1) | response in serum response element reporter gene assay (human EDG2) | effect on basal contractility of cardiomyocytes ([1]; LPA 10^-5 mol/l, isolated cardiomyocytes from failing hearts) | effect on contractility of cardiomyocytes ([1]; absence of prestimulation with isoproterenol) | inotropic effect (fractional shortening) ([1]; increasing concentrations of LPA after prestimulation with isoproterenol 10^-8 mol/l, FIG. 2) | inotropic effect (fractional shortening) [2]
CC(C)NCC(O)c1ccc(O)c(O)c1 (stereo not drawn) [isoproterenol] | significantly lower positively inotropic effect |  |  |  |  | 
lysophosphatidic acid [LPA] |  | elevated response | does not alter basal contractility | no effect on the contractility | significant negatively inotropic effect | no effect
